According to PubChem BioAssay AID2060902 (Molecular Pharmacology Branch, DTP, NCI, 2025):

System: 485368-065-R3-J5-PDC spheroids with HUVEC/MSC, viability
Experiment: Anticancer human tumor 485368-065-R3-J5-PDC patient-derived pancreatic carcinoma cell line growth inhibition [RAS]
Conditions: for IC50: curve of first compound; for viability, T/C: stronger effect = lower value; active = viability on the fitted dose curve at most 10% of control; inactive = the rest
In short: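 Multi-cell-type spheroids: tumor cells plus HUVEC endothelial cells and mesenchymal stem cells. RAS-pathway inhibitors were combined with targeted agents, each dosed in half-log steps down from clinical Cmax, or from 10 microM when Cmax was unknown.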
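Note: spheroids exposed to agents for seven days before readout.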

CC1(C)CCC(Nc2ncc(C(F)(F)F)c(-c3c[nH]c4c(P(C)(C)=O)c(C#N)ccc34)n2)CN1 (configuration not stated) + CCn1c(-c2cccnc2C(C)OC)c2c3cc(ccc31)N1CCOC(CC(NC(=O)C(C(C)C)N(C)C(=O)C3(F)CCN(C(=O)C#CC(C)(C)N(C)C)CC3)C(=O)N3CCCC(N3)C(=O)OCC(C)(C)C2)C1
9.04 nM: IC50 (second compound 0.000949 µM)
7.35 nM: IC50 (second compound 0.03 µM)
15.7 nM: IC50 (second compound 0.003 µM)
13.6 nM: IC50 (second compound 0.0949 µM)
inactive: viability, T/C (second compound 0.000949 µM, first compound 0.000949 µM) 116% | viability, T/C (second compound 0.000949 µM, first compound 0.003 µM) 85.7% | viability, T/C (second compound 0.000949 µM, first compound 0.00949 µM) 48% | viability, T/C (second compound 0.000949 µM, first compound 0.03 µM) 47.1% | viability, T/C (second compound 0.000949 µM, first compound 0.0949 µM) 43.6% | viability, T/C (second compound 0.000949 µM, first compound 0.3 µM) 39.9% | viability, T/C (second compound 0.003 µM, first compound 0.000949 µM) 109% | viability, T/C (second compound 0.003 µM, first compound 0.003 µM) 73.9% | viability, T/C (second compound 0.003 µM, first compound 0.00949 µM) 61% | viability, T/C (second compound 0.003 µM, first compound 0.03 µM) 40.3% | viability, T/C (second compound 0.003 µM, first compound 0.0949 µM) 32.7% | viability, T/C (second compound 0.003 µM, first compound 0.3 µM) 35.9% | viability, T/C (second compound 0.00949 µM, first compound 0.000949 µM) 107% | viability, T/C (second compound 0.00949 µM, first compound 0.003 µM) 86.7% | viability, T/C (second compound 0.00949 µM, first compound 0.00949 µM) 46.6% | viability, T/C (second compound 0.00949 µM, first compound 0.03 µM) 40.9% | viability, T/C (second compound 0.00949 µM, first compound 0.0949 µM) 42.5% | viability, T/C (second compound 0.00949 µM, first compound 0.3 µM) 38.2% | viability, T/C (second compound 0.03 µM, first compound 0.000949 µM) 108% | viability, T/C (second compound 0.03 µM, first compound 0.003 µM) 66.1% | viability, T/C (second compound 0.03 µM, first compound 0.00949 µM) 47.4% | viability, T/C (second compound 0.03 µM, first compound 0.03 µM) 35.2% | viability, T/C (second compound 0.03 µM, first compound 0.0949 µM) 38.3% | viability, T/C (second compound 0.03 µM, first compound 0.3 µM) 45.3% | viability, T/C (second compound 0.0949 µM, first compound 0.000949 µM) 104% | viability, T/C (second compound 0.0949 µM, first compound 0.003 µM) 76.2% | viability, T/C (second compound 0.0949 µM, first compound 0.00949 µM) 54.9% | viability, T/C (second compound 0.0949 µM, first compound 0.03 µM) 39.9% | viability, T/C (second compound 0.0949 µM, first compound 0.0949 µM) 39% | viability, T/C (second compound 0.0949 µM, first compound 0.3 µM) 35.5% | viability, T/C (second compound 0.3 µM, first compound 0.000949 µM) 102% | viability, T/C (second compound 0.3 µM, first compound 0.003 µM) 92.3% | viability, T/C (second compound 0.3 µM, first compound 0.00949 µM) 55.1% | viability, T/C (second compound 0.3 µM, first compound 0.03 µM) 47% | viability, T/C (second compound 0.3 µM, first compound 0.0949 µM) 45.6% | viability, T/C (second compound 0.3 µM, first compound 0.3 µM) 42.6%
17.6 nM: IC50 (second compound 0.3 µM)
8.62 nM: IC50 (second compound 0.00949 µM)
